Data published in article PMC9060900 (RSC Advances, 2019).

Molecular target: T1, TMV coat protein (TMV-CP; TMV CP) (Tobacco mosaic virus (vulgare), UniProt P69687)
T1 sequence (P69687 2-159): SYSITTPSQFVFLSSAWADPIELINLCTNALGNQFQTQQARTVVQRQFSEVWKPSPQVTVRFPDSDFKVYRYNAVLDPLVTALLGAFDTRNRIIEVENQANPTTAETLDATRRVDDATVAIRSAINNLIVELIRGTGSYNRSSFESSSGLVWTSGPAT
Assay: microscale thermophoresis
Type: binding

Cc1csc(/C=C/C(=O)c2ccccc2OCCSc2nnc(-c3ccccc3)c(-c3ccccc3)n2)n1 [4o]
Kd: 245 ± 63.9 µM
